The NIST ThermoML archive (doi:10.1021/acs.jced.6b00232)
Numbers after ± are expanded uncertainties.

Assay: mn = molality of the nth substance listed, in mol/kg
Conditions: 84.5 kPa, Liquid; for speed of sound: Frequency=3 MHz, Sing-around technique in a fixed-path interferometer; for mass density: Vibrating tube method

O=C[C@H](O)[C@@H](O)[C@H](O)[C@H](O)CO [D-glucose] + O
Conditions	mass density, 288.15 K [kg/m3]	mass density, 293.15 K [kg/m3]	mass density, 298.15 K [kg/m3]	mass density, 303.15 K [kg/m3]	mass density, 308.15 K [kg/m3]	speed of sound, 288.15 K [m/s]	speed of sound, 293.15 K [m/s]	speed of sound, 298.15 K [m/s]	speed of sound, 303.15 K [m/s]	speed of sound, 308.15 K [m/s]
m1 = 0.2921	1018.67 ± 0.3	1017.62 ± 0.3	1016.34 ± 0.3	1014.83 ± 0.3	1013.12 ± 0.3	–	1501 ± 1.2	1514.3 ± 1.2	1526 ± 1.2	1535.9 ± 1.2
m1 = 0.4836	1030.78 ± 0.3	1029.64 ± 0.3	1028.28 ± 0.3	1026.7 ± 0.3	1024.93 ± 0.3	1498.4 ± 1.2	1513 ± 1.2	1525.9 ± 1.2	1537.1 ± 1.2	1546.6 ± 1.2
m1 = 0.6164	1038.85 ± 0.3	1037.66 ± 0.3	1036.24 ± 0.3	1034.62 ± 0.3	1032.81 ± 0.3	1507 ± 1.2	1521.3 ± 1.2	1533.9 ± 1.2	1544.7 ± 1.2	1554 ± 1.2
m1 = 0.9795	1059.74 ± 0.31	1058.4 ± 0.31	1056.86 ± 0.31	1055.12 ± 0.31	1053.22 ± 0.31	1530.3 ± 1.2	–	1555.2 ± 1.2	1565.2 ± 1.2	1573.6 ± 1.2
m1 = 1.388	1081.24 ± 0.31	1079.76 ± 0.31	1078.09 ± 0.31	1076.24 ± 0.31	1074.24 ± 0.31	1555.6 ± 1.2	1567.8 ± 1.2	1578.4 ± 1.2	1587.4 ± 1.2	1595 ± 1.2
m1 = 1.85	1103.58 ± 0.31	1101.95 ± 0.31	1100.14 ± 0.31	1098.18 ± 0.31	1096.07 ± 0.31	1583.6 ± 1.2	1594.7 ± 1.2	1604.2 ± 1.3	1612.2 ± 1.3	1618.8 ± 1.3
m1 = 2.379	1126.54 ± 0.31	1124.77 ± 0.31	1122.85 ± 0.31	1120.79 ± 0.31	1118.58 ± 0.31	1613.6 ± 1.3	1623.3 ± 1.3	1631.7 ± 1.3	1638.6 ± 1.3	1644.3 ± 1.3
m1 = 2.989	1150.24 ± 0.32	1148.34 ± 0.32	1146.3 ± 0.32	1144.14 ± 0.32	1141.85 ± 0.32	1646 ± 1.3	1654.4 ± 1.3	1661.4 ± 1.3	1667.2 ± 1.3	1671.8 ± 1.3
m1 = 3.7	1174.74 ± 0.32	1172.71 ± 0.32	1170.56 ± 0.32	1168.3 ± 0.32	1165.92 ± 0.32	1681.2 ± 1.3	1688 ± 1.3	1693.8 ± 1.3	1698.3 ± 1.3	1701.8 ± 1.3
